Laboratory results published in PubChem BioAssay AID2060894 (Molecular Pharmacology Branch, DTP, NCI, 2025).
One block for each molecule: values may come before it.

Test system: K12877-001-R-J1-PDC complex spheroid viability
Experiment: Anticancer human tumor K12877-001-R-J1-PDC patient-derived lung adenocarcinoma cell line growth inhibition [RAS]
Details: for IC50: curve of first compound; for viability, T/C: stronger effect = lower value
In short: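 Tumour cells grown as complex spheroids with HUVEC endothelial cells and mesenchymal stem cells, treated with RAS pathway inhibitor combinations. Each agent spans half-log steps from near clinical Cmax, or 10 microM where Cmax is unknown.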

[1] = second compound 0.000949 µM, first compound 0.0316 µM
[2] = second compound 0.000949 µM, first compound 0.1 µM
[3] = second compound 0.000949 µM, first compound 0.316 µM
[4] = second compound 0.000949 µM, first compound 1 µM
[5] = second compound 0.000949 µM, first compound 3.16 µM
[6] = second compound 0.000949 µM, first compound 10 µM
[7] = second compound 0.003 µM, first compound 0.0316 µM
[8] = second compound 0.003 µM, first compound 0.1 µM
[9] = second compound 0.003 µM, first compound 0.316 µM
[10] = second compound 0.003 µM, first compound 1 µM
[11] = second compound 0.003 µM, first compound 3.16 µM
[12] = second compound 0.003 µM, first compound 10 µM
[13] = second compound 0.00949 µM, first compound 0.0316 µM
[14] = second compound 0.00949 µM, first compound 0.1 µM
[15] = second compound 0.00949 µM, first compound 0.316 µM
[16] = second compound 0.00949 µM, first compound 1 µM
[17] = second compound 0.00949 µM, first compound 3.16 µM
[18] = second compound 0.00949 µM, first compound 10 µM
[19] = second compound 0.03 µM, first compound 0.0316 µM
[20] = second compound 0.03 µM, first compound 0.1 µM
[21] = second compound 0.03 µM, first compound 0.316 µM
[22] = second compound 0.03 µM, first compound 1 µM
[23] = second compound 0.03 µM, first compound 3.16 µM
[24] = second compound 0.03 µM, first compound 10 µM
[25] = second compound 0.0949 µM, first compound 0.0316 µM
[26] = second compound 0.0949 µM, first compound 0.1 µM
[27] = second compound 0.0949 µM, first compound 0.316 µM
[28] = second compound 0.0949 µM, first compound 1 µM
[29] = second compound 0.0949 µM, first compound 3.16 µM
[30] = second compound 0.0949 µM, first compound 10 µM
[31] = second compound 0.3 µM, first compound 0.0316 µM
[32] = second compound 0.3 µM, first compound 0.1 µM
[33] = second compound 0.3 µM, first compound 0.316 µM
[34] = second compound 0.3 µM, first compound 1 µM
[35] = second compound 0.3 µM, first compound 3.16 µM
[36] = second compound 0.3 µM, first compound 10 µM
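Note: spheroids exposed to agents for one week before readout.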

IC50 (second compound 0.000949 µM): < 0.0316 µM | IC50 (second compound 0.003 µM): < 0.0316 µM | IC50 (second compound 0.00949 µM): < 0.0316 µM | IC50 (second compound 0.03 µM): < 0.0316 µM | IC50 (second compound 0.0949 µM): < 0.0316 µM | IC50 (second compound 0.3 µM): < 0.0316 µM
Compound: CC(=O)OC12COC1CC(O)C1(C)C(=O)C(O)C3=C(C)C(OC(=O)C(O)C(NC(=O)OC(C)(C)C)c4ccccc4)CC(O)(C(OC(=O)c4ccccc4)C21)C3(C)C (stereo unspecified) + CCn1c(-c2cccnc2C(C)OC)c2c3cc(ccc31)N1CCOC(CC(NC(=O)C(C(C)C)N(C)C(=O)C3(F)CCN(C(=O)C#CC(C)(C)N(C)C)CC3)C(=O)N3CCCC(N3)C(=O)OCC(C)(C)C2)C1
viability, T/C [1]: 4.23% | viability, T/C [2]: 2.96% | viability, T/C [3]: 3.64% | viability, T/C [4]: 3.51% | viability, T/C [5]: 3.12% | viability, T/C [6]: 6.19% | viability, T/C [7]: 4.57% | viability, T/C [8]: 3.08% | viability, T/C [9]: 3.09% | viability, T/C [10]: 2.71% | viability, T/C [11]: 3.37% | viability, T/C [12]: 6.21% | viability, T/C [13]: 3.31% | viability, T/C [14]: 2.69% | viability, T/C [15]: 2.28% | viability, T/C [16]: 2.12% | viability, T/C [17]: 2.87% | viability, T/C [18]: 5.23% | viability, T/C [19]: 3.32% | viability, T/C [20]: 2.79% | viability, T/C [21]: 2.34% | viability, T/C [22]: 2.42% | viability, T/C [23]: 2.51% | viability, T/C [24]: 5.78% | viability, T/C [25]: 2.88% | viability, T/C [26]: 2.42% | viability, T/C [27]: 2.13% | viability, T/C [28]: 2.21% | viability, T/C [29]: 2.11% | viability, T/C [30]: 4.05% | viability, T/C [31]: 3.02% | viability, T/C [32]: 2.23% | viability, T/C [33]: 2.13% | viability, T/C [34]: 1.55% | viability, T/C [35]: 1.93% | viability, T/C [36]: 3.39%

IC50 (second compound 0.000949 µM): 0.58 µM | IC50 (second compound 0.003 µM): 0.509 µM | IC50 (second compound 0.00949 µM): 0.225 µM | IC50 (second compound 0.03 µM): 0.145 µM | IC50 (second compound 0.0949 µM): 0.136 µM | IC50 (second compound 0.3 µM): 0.0677 µM
Compound: NC1c2ccccc2OC12CCN(c1cnc3c(N4CCCc5ncccc54)n[nH]c3n1)CC2 (stereo unspecified) + CCn1c(-c2cccnc2C(C)OC)c2c3cc(ccc31)N1CCOC(CC(NC(=O)C(C(C)C)N(C)C(=O)C3(F)CCN(C(=O)C#CC(C)(C)N(C)C)CC3)C(=O)N3CCCC(N3)C(=O)OCC(C)(C)C2)C1
viability, T/C [1]: 69% | viability, T/C [2]: 67.8% | viability, T/C [3]: 56% | viability, T/C [4]: 43.8% | viability, T/C [5]: 38.5% | viability, T/C [6]: 34% | viability, T/C [7]: 65.8% | viability, T/C [8]: 62.2% | viability, T/C [9]: 52.5% | viability, T/C [10]: 45.4% | viability, T/C [11]: 37% | viability, T/C [12]: 30% | viability, T/C [13]: 76.9% | viability, T/C [14]: 54.1% | viability, T/C [15]: 49.5% | viability, T/C [16]: 38.5% | viability, T/C [17]: 37.6% | viability, T/C [18]: 28.9% | viability, T/C [19]: 65.9% | viability, T/C [20]: 50.9% | viability, T/C [21]: 44.9% | viability, T/C [22]: 39.3% | viability, T/C [23]: 34.5% | viability, T/C [24]: 30.8% | viability, T/C [25]: 62.4% | viability, T/C [26]: 52.1% | viability, T/C [27]: 41.8% | viability, T/C [28]: 38.3% | viability, T/C [29]: 39.1% | viability, T/C [30]: 27.4% | viability, T/C [31]: 58.3% | viability, T/C [32]: 46.9% | viability, T/C [33]: 35% | viability, T/C [34]: 29.1% | viability, T/C [35]: 29.8% | viability, T/C [36]: 22.8%

IC50 (second compound 0.000949 µM): 0.0145 µM | IC50 (second compound 0.003 µM): 0.0132 µM | IC50 (second compound 0.00949 µM): 0.0127 µM | IC50 (second compound 0.03 µM): 0.0124 µM | IC50 (second compound 0.0949 µM): 0.0105 µM | IC50 (second compound 0.3 µM): 0.00589 µM
Compound: Nc1ccn(C2OC(CO)C(O)C2(F)F)c(=O)n1 (stereo unspecified) + CCn1c(-c2cccnc2C(C)OC)c2c3cc(ccc31)N1CCOC(CC(NC(=O)C(C(C)C)N(C)C(=O)C3(F)CCN(C(=O)C#CC(C)(C)N(C)C)CC3)C(=O)N3CCCC(N3)C(=O)OCC(C)(C)C2)C1
viability, T/C (second compound 0.000949 µM, first compound 0.00316 µM): 83.5% | viability, T/C (second compound 0.000949 µM, first compound 0.01 µM): 71.9% | viability, T/C [1]: 4.44% | viability, T/C [2]: 3.87% | viability, T/C [3]: 3.37% | viability, T/C [4]: 4.46% | viability, T/C (second compound 0.003 µM, first compound 0.00316 µM): 82.3% | viability, T/C (second compound 0.003 µM, first compound 0.01 µM): 64.6% | viability, T/C [7]: 4.22% | viability, T/C [8]: 3.94% | viability, T/C [9]: 5.22% | viability, T/C [10]: 3.83% | viability, T/C (second compound 0.00949 µM, first compound 0.00316 µM): 79.7% | viability, T/C (second compound 0.00949 µM, first compound 0.01 µM): 61.6% | viability, T/C [13]: 5.4% | viability, T/C [14]: 4.58% | viability, T/C [15]: 3.59% | viability, T/C [16]: 3.51% | viability, T/C (second compound 0.03 µM, first compound 0.00316 µM): 82.2% | viability, T/C (second compound 0.03 µM, first compound 0.01 µM): 60.4% | viability, T/C [19]: 3.17% | viability, T/C [20]: 4.94% | viability, T/C [21]: 4.16% | viability, T/C [22]: 3.02% | viability, T/C (second compound 0.0949 µM, first compound 0.00316 µM): 77.2% | viability, T/C (second compound 0.0949 µM, first compound 0.01 µM): 52% | viability, T/C [25]: 5.2% | viability, T/C [26]: 3.34% | viability, T/C [27]: 2.8% | viability, T/C [28]: 3.38% | viability, T/C (second compound 0.3 µM, first compound 0.00316 µM): 71.6% | viability, T/C (second compound 0.3 µM, first compound 0.01 µM): 31.5% | viability, T/C [31]: 3.46% | viability, T/C [32]: 2.66% | viability, T/C [33]: 3.3% | viability, T/C [34]: 3.43%
